Earlier results, collected in patent publication US20240000727A1, “STABLE COATED SOLID PHARMACEUTICAL COMPOSITION OF AN OPIOID ANALGESIC AND AN ANTI-EPILEPTIC FOR PAIN” (LABORATORIOS SILANES S.A. DE C.V., priority 2020, published 2024).

Tested on: moderate to severe postoperative pain
Conditions: intravenous or intramuscular; patients with moderate to severe postoperative pain

For `COc1cccc([C@@]2(O)CCCC[C@@H]2CN(C)C)c1` [tramadol, (1R,2R)-2-[(dimethylamino)methyl]-1-(3-methoxyphenyl)cyclohexan-1-ol], the “Potency relative to nalbuphine” value is given as “one-fifth as potent” and the “Potency relative to pethidine (meperidine)” value is given as “equivalent”.
